System: test plant species
Experiment: Post-emergent herbicidal activity test (greenhouse, foliar spray, visual growth reduction)
Type: in vivo
Details: post-emergence, 336 h, ECHCG: barnyardgrass (Echinochloa crus-galli), 140 g ai/ha, 14 days after application, read-out: Visual Growth Reduction (%) 14 Days After Application, ECHCG
Experimental: Post-emergent Test: Seeds or nutlets of the desired test plant species were planted in Sun Gro Metro-Mix® 360 planting mixture, which typically has a pH of 6.0 to 6.8 and an organic matter content of about 30 percent, in plastic pots with a surface area of 64 square centimeters. In some aspects, to ensure good germination and healthy plants, a fungicide treatment and/or other chemical or physical treatment was applied. The plants were grown for 7-21 d in a greenhouse with an approximate 15 h photoperiod which was maintained at 23-29° C. during the day and 22-28° C. during the night. Nutrients and water were added on a regular basis and supplemental lighting was provided with overhead metal halide 1000-Watt lamps as necessary. Plants were used for testing when they reached the first or second true leaf stage. A weighed amount, determined by the highest rate to be tested, of each test compound was placed in a 25 mL glass vial and was dissolved in 4 mL of a 97:3 v/v mixture of acetone and DMSO to obtain concentrated stock solutions. […] The concentrated stock solutions obtained were diluted with 20 mL of an aqueous mixture containing acetone, water, isopropyl alcohol, DMSO, […] crop oil concentrate, and X-77 surfactant in a 48.5:39:10:1.5:1.0:0.02 v/v ratio to obtain spray solutions containing the application rate. Compound requirements are based upon a 12 mL application volume at a rate of 187 liters per hectare (L/ha). Formulated compounds were applied to the plant material with an overhead Mandel track sprayer equipped with […] nozzles calibrated to deliver 187 L/ha over an application area of 0.64 square meters at a spray height of 18 inches (43 cm) above the average plant canopy height. Control plants were sprayed in the same manner with the solvent blank. The treated plants and control plants were placed in a greenhouse as described above and watered by subirrigation to prevent wash-off of the test compounds. After 14 d, the condition of the test plants as compared with that of the nontreated and control plants was determined visually and scored on a scale of 0 to 100 percent where 0 corresponds to no injury and 100 corresponds to complete control. In the reporting of the results, Table A: Percent Growth Reduction Conversion Table was used.

SMILES | pest or weed control at 140 g/ha [%]
COC(=O)c1nc(-c2cc(F)c3c(c2)OC(F)(F)O3)ccc1Cl [F367, Methyl 3-chloro-6-(2,2,7-trifluorobenzo[d][1,3]dioxol-5-yl)picolinate] | 0 to 29
COC(=O)c1nc(-c2ccc(C#N)cc2F)c(F)cc1Cl [F378, Methyl 3-chloro-6-(4-cyano-2-fluorophenyl)-5-fluoropicolinate] | 0 to 29

Same assay, conditions: post-emergence, 336 h, IPOHE: ivy-leaf morning glory (Ipomoea hederacea), 140 g ai/ha, 14 days after application, read-out: Visual Growth Reduction (%) 14 Days After Application, IPOHE

SMILES | pest or weed control at 140 g/ha [%]
COC(=O)c1nc(-c2cc(F)c3c(c2)OC(F)(F)O3)ccc1Cl [F367, Methyl 3-chloro-6-(2,2,7-trifluorobenzo[d][1,3]dioxol-5-yl)picolinate] | 95 to 100
COC(=O)c1nc(-c2ccc(C#N)cc2F)c(F)cc1Cl [F378, Methyl 3-chloro-6-(4-cyano-2-fluorophenyl)-5-fluoropicolinate] | 95 to 100

Same assay, conditions: post-emergence, 336 h, KCHSC: kochia (Bassia scoparia), 140 g ai/ha, 14 days after application, read-out: Visual Growth Reduction (%) 14 Days After Application, KCHSC

SMILES | pest or weed control at 140 g/ha [%]
COC(=O)c1nc(-c2cc(F)c3c(c2)OC(F)(F)O3)ccc1Cl [F367, Methyl 3-chloro-6-(2,2,7-trifluorobenzo[d][1,3]dioxol-5-yl)picolinate] | 0 to 29
COC(=O)c1nc(-c2ccc(C#N)cc2F)c(F)cc1Cl [F378, Methyl 3-chloro-6-(4-cyano-2-fluorophenyl)-5-fluoropicolinate] | 45 to 59

Same assay, conditions: post-emergence, 336 h, ORYSA: rice (Oryza sativa), 140 g ai/ha, 14 days after application, read-out: Visual Growth Reduction (%) 14 Days After Application, ORYSA

SMILES | pest or weed control at 140 g/ha [%]
COC(=O)c1nc(-c2cc(F)c3c(c2)OC(F)(F)O3)ccc1Cl [F367, Methyl 3-chloro-6-(2,2,7-trifluorobenzo[d][1,3]dioxol-5-yl)picolinate] | 0 to 29
COC(=O)c1nc(-c2ccc(C#N)cc2F)c(F)cc1Cl [F378, Methyl 3-chloro-6-(4-cyano-2-fluorophenyl)-5-fluoropicolinate] | 0 to 29

Same assay, conditions: post-emergence, 336 h, SETFA: giant foxtail (Setaria faberi), 140 g ai/ha, 14 days after application, read-out: Visual Growth Reduction (%) 14 Days After Application, SETFA

SMILES | pest or weed control at 140 g/ha [%]
COC(=O)c1nc(-c2cc(F)c3c(c2)OC(F)(F)O3)ccc1Cl [F367, Methyl 3-chloro-6-(2,2,7-trifluorobenzo[d][1,3]dioxol-5-yl)picolinate] | 0 to 29
COC(=O)c1nc(-c2ccc(C#N)cc2F)c(F)cc1Cl [F378, Methyl 3-chloro-6-(4-cyano-2-fluorophenyl)-5-fluoropicolinate] | 60 to 74

Same assay, conditions: post-emergence, 336 h, SORVU: grain sorghum (Sorghum vulgare), 140 g ai/ha, 14 days after application, read-out: Visual Growth Reduction (%) 14 Days After Application, SORVU

SMILES | pest or weed control at 140 g/ha [%]
COC(=O)c1nc(-c2cc(F)c3c(c2)OC(F)(F)O3)ccc1Cl [F367, Methyl 3-chloro-6-(2,2,7-trifluorobenzo[d][1,3]dioxol-5-yl)picolinate] | 0 to 29
COC(=O)c1nc(-c2ccc(C#N)cc2F)c(F)cc1Cl [F378, Methyl 3-chloro-6-(4-cyano-2-fluorophenyl)-5-fluoropicolinate] | 75 to 84

Same assay, conditions: post-emergence, 336 h, STEME: common chickweed (Stellaria media), 140 g ai/ha, 14 days after application, read-out: Visual Growth Reduction (%) 14 Days After Application, STEME

SMILES | pest or weed control at 140 g/ha [%]
COC(=O)c1nc(-c2cc(F)c3c(c2)OC(F)(F)O3)ccc1Cl [F367, Methyl 3-chloro-6-(2,2,7-trifluorobenzo[d][1,3]dioxol-5-yl)picolinate] | 0 to 29
COC(=O)c1nc(-c2ccc(C#N)cc2F)c(F)cc1Cl [F378, Methyl 3-chloro-6-(4-cyano-2-fluorophenyl)-5-fluoropicolinate] | 0 to 29

Same assay, conditions: post-emergence, 336 h, TRZAS: wheat, spring (Triticum aestivum), 140 g ai/ha, 14 days after application, read-out: Visual Growth Reduction (%) 14 Days After Application, TRZAS

SMILES | pest or weed control at 140 g/ha [%]
COC(=O)c1nc(-c2cc(F)c3c(c2)OC(F)(F)O3)ccc1Cl [F367, Methyl 3-chloro-6-(2,2,7-trifluorobenzo[d][1,3]dioxol-5-yl)picolinate] | 0 to 29
COC(=O)c1nc(-c2ccc(C#N)cc2F)c(F)cc1Cl [F378, Methyl 3-chloro-6-(4-cyano-2-fluorophenyl)-5-fluoropicolinate] | 0 to 29

Same assay, conditions: post-emergence, 336 h, blackgrass (Alopecurus myosuroides), 14 Days After Application, 140 g ai/ha, read-out: Visual Growth Reduction (%) ALOMY

SMILES | pest or weed control at 140 g/ha [%]
COC(=O)c1nc(-c2cc(F)c3c(c2)OC(F)(F)O3)ccc1Cl [F367, Methyl 3-chloro-6-(2,2,7-trifluorobenzo[d][1,3]dioxol-5-yl)picolinate] | 0 to 29
COC(=O)c1nc(-c2ccc(C#N)cc2F)c(F)cc1Cl [F378, Methyl 3-chloro-6-(4-cyano-2-fluorophenyl)-5-fluoropicolinate] | 0 to 29

Same assay, conditions: post-emergence, 336 h, canada thistle (Cirsium arvense), 14 Days After Application, 140 g ai/ha, read-out: Visual Growth Reduction (%) CIRAR

SMILES | pest or weed control at 140 g/ha [%]
COC(=O)c1nc(-c2cc(F)c3c(c2)OC(F)(F)O3)ccc1Cl [F367, Methyl 3-chloro-6-(2,2,7-trifluorobenzo[d][1,3]dioxol-5-yl)picolinate] | 0 to 29
COC(=O)c1nc(-c2ccc(C#N)cc2F)c(F)cc1Cl [F378, Methyl 3-chloro-6-(4-cyano-2-fluorophenyl)-5-fluoropicolinate] | 45 to 59

Same assay, conditions: post-emergence, 336 h, crabgrass (Digitaria sanguinalis), 14 Days After Application, 140 g ai/ha, read-out: Visual Growth Reduction (%) DIGSA

SMILES | pest or weed control at 140 g/ha [%]
COC(=O)c1nc(-c2cc(F)c3c(c2)OC(F)(F)O3)ccc1Cl [F367, Methyl 3-chloro-6-(2,2,7-trifluorobenzo[d][1,3]dioxol-5-yl)picolinate] | 75 to 84
COC(=O)c1nc(-c2ccc(C#N)cc2F)c(F)cc1Cl [F378, Methyl 3-chloro-6-(4-cyano-2-fluorophenyl)-5-fluoropicolinate] | 60 to 74

Same assay, conditions: post-emergence, 336 h, lambsquarters (Chenopodium album), 14 Days After Application, 140 g ai/ha, read-out: Visual Growth Reduction (%) CHEAL

SMILES | pest or weed control at 140 g/ha [%]
COC(=O)c1nc(-c2cc(F)c3c(c2)OC(F)(F)O3)ccc1Cl [F367, Methyl 3-chloro-6-(2,2,7-trifluorobenzo[d][1,3]dioxol-5-yl)picolinate] | 0 to 29
COC(=O)c1nc(-c2ccc(C#N)cc2F)c(F)cc1Cl [F378, Methyl 3-chloro-6-(4-cyano-2-fluorophenyl)-5-fluoropicolinate] | 75 to 84

Same assay, conditions: post-emergence, 336 h, redroot pigweed (Amaranthus retroflexus), 14 Days After Application, 140 g ai/ha, read-out: Visual Growth Reduction (%) AMARE

SMILES | pest or weed control at 140 g/ha [%]
COC(=O)c1nc(-c2cc(F)c3c(c2)OC(F)(F)O3)ccc1Cl [F367, Methyl 3-chloro-6-(2,2,7-trifluorobenzo[d][1,3]dioxol-5-yl)picolinate] | 0 to 29
COC(=O)c1nc(-c2ccc(C#N)cc2F)c(F)cc1Cl [F378, Methyl 3-chloro-6-(4-cyano-2-fluorophenyl)-5-fluoropicolinate] | 45 to 59

Same assay, conditions: post-emergence, 336 h, wild oat (Avena fatua), 14 Days After Application, 140 g ai/ha, read-out: Visual Growth Reduction (%) AVEFA

SMILES | pest or weed control at 140 g/ha [%]
COC(=O)c1nc(-c2cc(F)c3c(c2)OC(F)(F)O3)ccc1Cl [F367, Methyl 3-chloro-6-(2,2,7-trifluorobenzo[d][1,3]dioxol-5-yl)picolinate] | 0 to 29
COC(=O)c1nc(-c2ccc(C#N)cc2F)c(F)cc1Cl [F378, Methyl 3-chloro-6-(4-cyano-2-fluorophenyl)-5-fluoropicolinate] | 0 to 29

Same assay, conditions: post-emergence, 336 h, yellow nutsedge (Cyperus esculentus), 14 Days After Application, 140 g ai/ha, read-out: Visual Growth Reduction (%) CYPES

SMILES | pest or weed control at 140 g/ha [%]
COC(=O)c1nc(-c2cc(F)c3c(c2)OC(F)(F)O3)ccc1Cl [F367, Methyl 3-chloro-6-(2,2,7-trifluorobenzo[d][1,3]dioxol-5-yl)picolinate] | 0 to 29
COC(=O)c1nc(-c2ccc(C#N)cc2F)c(F)cc1Cl [F378, Methyl 3-chloro-6-(4-cyano-2-fluorophenyl)-5-fluoropicolinate] | 0 to 29

From patent publication US20230017045A1, “PYRIDINE AND PYRIMIDINE CARBOXYLATE HERBICIDES AND METHODS OF USE THEREOF” (Dow AgroSciences LLC, priority 2017, published 2023)
